The results in this text go back to US9539256B2 (THE BOARD OF REGENTS OF THE UNIVERSITY OF TEXAS SYSTEM, priority 2012, dated 2017).

One experiment relates to AsPC-1 and PANC-1 cells. The experiment is described as follows: Cell adhesion assay on collagen I matrix. Type of experiment: cell-based. The settings on record: stimulation with 10 μM 007-AM. The protocol:
FIG. 13 ESI-09 inhibits EPAC1-mediated adhesion of PDA cells on collagen I. AsPC-1 and PANC-1 cells were stimulated with vehicle or 10 μM 007-AM after treatment with the indicated concentrations of ESI-09 for 5 minutes. Bars represent mean±s.d.
It has been recently reported that EPAC1 is over-expressed in pancreatic adenocarcinoma (Lorenz et al. (2008) Pancreas 37: 102-103). However, the functional role of EPAC1 elevation in this neoplasm is not clear. The inventors sought to employ ESI-09 to determine the role of EPAC1 signaling in pancreatic cancer. […] In order to determine if the observed impact on cell migration is EPAC1 specific, the effect of suppressing EPAC1 expression on AsPC-1 and PANC-1 migration using RNAi was examined. […] To further determine how ESI-09 inhibits PDA cell migration and invasion, a cell adhesion assay was performed using a collagen I matrix. […] To determine the in vivo anti-metastatic effect of ESI-09, MIA PaCa-2 stably expressing luciferase were orthotopically implanted into the pancreas of athymic nude mice. The mice were randomly divided into two groups and treated with vehicle or ESI-09 (50 mg/kg per day, oral gavage), respectively. The growth and metastasis of the tumors were monitored by weekly bioluminescence imaging using the IVIS bioluminescence imaging system.

The target in experiment [1] is T1, EPAC2 (Homo sapiens, UniProt Q8WZA2).
T1 construct: HEK293 cells that ectopically express full-length EPAC2 proteins; expressed in transfected cells; host or cells: HEK293
T1 sequence (Q8WZA2 whole entry, species assumed): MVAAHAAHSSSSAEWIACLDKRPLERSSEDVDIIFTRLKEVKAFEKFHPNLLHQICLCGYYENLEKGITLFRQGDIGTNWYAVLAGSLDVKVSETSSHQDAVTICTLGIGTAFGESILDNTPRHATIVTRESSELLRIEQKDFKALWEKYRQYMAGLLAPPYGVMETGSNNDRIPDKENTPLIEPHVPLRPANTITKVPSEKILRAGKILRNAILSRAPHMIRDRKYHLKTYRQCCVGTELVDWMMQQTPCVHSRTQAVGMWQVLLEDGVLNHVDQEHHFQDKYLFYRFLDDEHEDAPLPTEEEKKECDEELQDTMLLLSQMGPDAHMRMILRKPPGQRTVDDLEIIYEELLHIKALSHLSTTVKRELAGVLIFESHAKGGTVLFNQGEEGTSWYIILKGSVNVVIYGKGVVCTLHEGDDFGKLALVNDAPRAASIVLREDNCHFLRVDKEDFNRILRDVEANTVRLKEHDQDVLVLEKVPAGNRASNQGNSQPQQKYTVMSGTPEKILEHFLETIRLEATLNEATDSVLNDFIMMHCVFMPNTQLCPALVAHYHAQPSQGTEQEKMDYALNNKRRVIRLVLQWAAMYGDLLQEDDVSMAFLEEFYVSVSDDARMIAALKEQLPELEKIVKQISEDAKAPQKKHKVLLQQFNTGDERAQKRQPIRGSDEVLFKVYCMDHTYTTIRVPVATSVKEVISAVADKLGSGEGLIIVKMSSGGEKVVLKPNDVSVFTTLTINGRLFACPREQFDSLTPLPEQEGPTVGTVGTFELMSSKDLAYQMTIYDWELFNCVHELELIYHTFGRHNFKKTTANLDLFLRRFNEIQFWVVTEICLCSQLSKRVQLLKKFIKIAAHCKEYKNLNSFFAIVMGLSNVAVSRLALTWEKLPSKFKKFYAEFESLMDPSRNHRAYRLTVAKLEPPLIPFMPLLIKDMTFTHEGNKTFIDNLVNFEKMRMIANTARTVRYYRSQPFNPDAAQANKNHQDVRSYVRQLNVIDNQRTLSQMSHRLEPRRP
The experiment can be described thus: Rap1 activation assay in HEK293/EPAC2 cells. It counts as cell-based. The settings on record: for 007-AM induced Rap1 activation: HEK293/EPAC2 cells, pre-treatment with 10 μM compound. The protocol: (§1) FIGS. 9A-9B. Effects of EPAC2-specific antagonists on 007-AM-mediated cellular activation of Rap1. […] GTP-bound Rap1 (Rap1GTP) obtained by a Ral-GDSRBD-GST pull-down assay and total cellular Rap1 were detected by immunoblotting with Rap1-specific antibody. […] At test was used to determine statistical significance (*P<0.05).
(§2) Cellular activation of Rap1 was determined by pull-down of lysates derived from human vascular smooth muscle cell and HEK293 cells stably expressing EPAC1 or EPAC2 employing Ral-GDS-RBD-GST affinity beads as described earlier (Mei and Cheng (2005) Molecular Biosystems 1: 325-331).

Experiment [2] addresses T1, EPAC2. The experiment can be described thus: Phosphorylation of Akt in HEK293/EPAC2 cells. It counts as cell-based. The settings on record: stimulation with 007-AM. The procedure:
(§3) FIG. 10. Effect of ESI-09 on EPAC-mediated PKB phosphorylation in HEK293/EPAC1, HEK293/EPAC2, and human vascular smooth muscle (hVSMC) cells. Serum-starved HEK293/EPAC1, HEK293/EPAC2, and hVSMC cells with or without pretreatment of […] ESI-09 were stimulated with 10 μM 007-AM. Cell lysates were subjected to Western blot analysis as described under “Experimental Procedures” using anti-phospho-Ser473-specific (PKB-P473) and anti-phospho-Thr308-specific (PKB-P308) PKB antibodies.
(§4) Cellular proteins from cell lysates treated with various reagents were separated by SDS-PAGE and transferred to polyvinylidene difluoride membrane. The levels of Akt activation were probed by immuno-blotting analyses using anti-phosphate T308 PKB antibodies (1:1000) and anti-phosphate S473 PKB antibodies (1:1000). At least three independent experiments were performed for each Western blot.

The target in experiment [3] is T2, EPAC1 (Homo sapiens, UniProt O95398).
T2 sequence (O95398 1-923): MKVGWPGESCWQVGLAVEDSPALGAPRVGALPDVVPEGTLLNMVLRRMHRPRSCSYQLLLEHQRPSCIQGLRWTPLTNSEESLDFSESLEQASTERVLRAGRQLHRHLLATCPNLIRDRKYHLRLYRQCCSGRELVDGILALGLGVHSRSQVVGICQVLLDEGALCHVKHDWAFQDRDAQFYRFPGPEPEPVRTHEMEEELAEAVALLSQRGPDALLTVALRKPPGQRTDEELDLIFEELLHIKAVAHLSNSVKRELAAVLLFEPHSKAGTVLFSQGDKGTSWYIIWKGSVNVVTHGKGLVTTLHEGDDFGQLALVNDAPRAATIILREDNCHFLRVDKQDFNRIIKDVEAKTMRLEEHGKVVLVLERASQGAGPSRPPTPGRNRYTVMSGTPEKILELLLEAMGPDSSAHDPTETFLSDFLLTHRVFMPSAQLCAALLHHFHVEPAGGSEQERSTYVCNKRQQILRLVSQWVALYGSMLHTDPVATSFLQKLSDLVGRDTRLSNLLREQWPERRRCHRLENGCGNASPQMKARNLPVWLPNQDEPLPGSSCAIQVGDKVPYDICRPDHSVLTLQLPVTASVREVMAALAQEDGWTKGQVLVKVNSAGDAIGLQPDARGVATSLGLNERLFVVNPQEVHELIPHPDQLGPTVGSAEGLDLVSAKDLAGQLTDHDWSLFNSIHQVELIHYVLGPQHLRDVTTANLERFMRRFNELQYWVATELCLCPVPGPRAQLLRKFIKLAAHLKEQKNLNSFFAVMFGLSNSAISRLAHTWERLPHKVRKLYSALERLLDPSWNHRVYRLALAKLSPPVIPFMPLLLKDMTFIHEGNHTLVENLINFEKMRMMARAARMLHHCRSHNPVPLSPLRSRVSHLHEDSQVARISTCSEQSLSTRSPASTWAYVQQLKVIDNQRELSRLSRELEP
The experiment can be described thus: Phosphorylation of Akt in HEK293/EPAC1 cells. It counts as cell-based. Particulars: stimulation with 007-AM. The procedure:
as §3, §4

The next experiment concerns type II PKA holoenzyme. The experiment is described as follows: PKA counter screening, type II holoenzyme. Type of experiment: biochemical. The settings on record: 25 μM compound. The procedure: (§5) Kinase activity of the type I and II PKA holoenzyme are measured spectrophotometrically in a 96-well plate with a coupled enzyme assay as described previously (Cook et al. (1982) Biochemistry 21: 5794-5799). In this assay, the formation of ADP is coupled to the oxidation of NADH by the pyruvate kinase/lactate dehydrogenase reactions so the reaction rate can be determined by following the oxidation of NADH, reflected by a decrease in absorbance at 340 nm. […] Reactions are pre-equilibrated at room temperature and initiated by adding the Kemptide substrate (final concentration 0.26 mM).
For orientation: Counterscreens check selectivity or assay interference.

A further experiment has as its system type I PKA holoenzyme. The experiment is described as follows: PKA counter screening, type I holoenzyme. Particulars: 25 μM compound. It counts as biochemical. The procedure: as §5
Experiment [4] addresses T2, EPAC1. The experiment is described as follows: Rap1-GDP exchange (GEF) activity assay, EPAC1.
Experiment [5] addresses T2, EPAC1. The experiment can be described thus: Rap1 activation assay in HEK293/EPAC1 cells. It counts as cell-based. The procedure:
as §1, §2

For experiment [6], the target named is T3, EPAC2 (Mus musculus, UniProt Q9EQZ6).
T3 sequence (Q9EQZ6 1-1011): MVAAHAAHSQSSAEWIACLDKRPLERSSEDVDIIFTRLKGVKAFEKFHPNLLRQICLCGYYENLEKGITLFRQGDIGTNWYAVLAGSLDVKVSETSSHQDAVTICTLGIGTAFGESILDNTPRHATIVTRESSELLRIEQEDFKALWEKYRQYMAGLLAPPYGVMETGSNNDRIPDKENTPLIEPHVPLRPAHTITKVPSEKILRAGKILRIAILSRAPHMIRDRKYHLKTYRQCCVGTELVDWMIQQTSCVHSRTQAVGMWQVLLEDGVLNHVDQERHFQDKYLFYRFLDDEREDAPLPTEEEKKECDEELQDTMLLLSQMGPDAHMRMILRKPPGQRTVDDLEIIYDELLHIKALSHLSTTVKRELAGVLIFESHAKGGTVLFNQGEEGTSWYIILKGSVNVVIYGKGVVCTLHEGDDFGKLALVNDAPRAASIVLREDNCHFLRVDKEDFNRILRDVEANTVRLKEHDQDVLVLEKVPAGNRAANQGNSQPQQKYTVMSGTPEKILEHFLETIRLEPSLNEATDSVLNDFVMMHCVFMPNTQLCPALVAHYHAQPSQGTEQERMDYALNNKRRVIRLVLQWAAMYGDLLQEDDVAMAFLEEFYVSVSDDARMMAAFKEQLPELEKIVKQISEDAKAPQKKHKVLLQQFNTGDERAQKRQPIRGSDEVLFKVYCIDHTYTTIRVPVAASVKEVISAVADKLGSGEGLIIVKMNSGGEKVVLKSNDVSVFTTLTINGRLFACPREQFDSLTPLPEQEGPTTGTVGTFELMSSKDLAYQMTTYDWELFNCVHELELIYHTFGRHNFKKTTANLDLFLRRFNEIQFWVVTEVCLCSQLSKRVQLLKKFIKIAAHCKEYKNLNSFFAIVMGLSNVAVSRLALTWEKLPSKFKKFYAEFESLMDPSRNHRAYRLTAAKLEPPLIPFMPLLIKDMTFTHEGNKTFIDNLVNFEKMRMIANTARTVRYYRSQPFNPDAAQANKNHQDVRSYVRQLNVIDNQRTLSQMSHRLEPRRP
The experiment is described as follows: 8-NBD-cAMP competition binding to EPAC2. The procedure: Primary screen is performed in black 96-well or 384-well microplates. As an example, 50 nM EPAC2 solution is prepared in 20 mM Tris buffer, pH 7.5, containing 150 mM NaCl, 1 mM EDTA, and 1 mM […]. […] Sample is dispensed into plate and test compounds added from 96-well mother plates. […] Fluorescence intensity signal from 8-NBD was recorded at room temperature (rt) before and after tested compounds are added using SpectaMaxM2 microplate reader (Molecular Devices, Silicon Valley, Calif., USA) with excitation/emission wavelengths set at 470/540 nm.

SMILES strings stand for the structures.

For the molecule `CO[C@@H]1[C@@H]2OP(=O)(OCOC(C)=O)OC[C@H]2O[C@H]1n1c(Sc2ccc(Cl)cc2)nc2c(N)ncnc21` (stereo partly drawn) [Compound 007-AM, 8-(4-Chlorophenylthio)-2′-O-methyladenosine-3′,5′-cyclic monophosphate, acetoxymethyl ester, reference compound], the cell adhesion entry in the experiment with AsPC-1 and PANC-1 cells is on record as “increase”. In addition, the “fraction of GTP-bound cellular Rap1” value at EPAC2 [1] (HEK293/EPAC2 cells treated with 007-AM) is “increase”. Also, the “Akt phosphorylation for both T308 and S473” value at EPAC2 [2] and at EPAC1 [3] was “increase” throughout.
With `O=S(=O)(NCCNC/C=C/c1ccc(Br)cc1)c1cccc2cnccc12` [Compound H89, reference compound], the “cAMP-induced type II PKA holoenzyme activation” value in the experiment with type II PKA holoenzyme was “blocked the type I or II PKA activities completely”. For the same molecule, in the experiment with type I PKA holoenzyme, the “cAMP-induced type I PKA holoenzyme activation” value is on record as “blocked the type I or II PKA activities completely”.
Take `Cc1ccc(S(=O)(=O)c2c(C)cc(C)cc2C)cc1` [ESI-05]: on EPAC1 [4] (cAMP-mediated Rap1-GDP exchange), the “suppressing EPAC1 GEF activity” value is on record as “completely ineffective”. Moreover, the “EPAC1 IC50” value at EPAC1 [4] (suppressing EPAC1 GEF activity, 25 μM cAMP) was “NMA*”. In addition, the “cAMP-induced type II PKA holoenzyme activation” value in the experiment on type II PKA holoenzyme was “did not significantly alter”. The results for the “007-AM induced Rap1 activation” value at EPAC2 [1] and on EPAC1 [5] were “significant reduction” and “ineffective”, respectively. Further, the “cAMP-induced type I PKA holoenzyme activation” value in the experiment on type I PKA holoenzyme is on record as “did not significantly alter”.
For the molecule `Cc1ccc(C)c(CSc2nc(C3CCCCC3)c(C#N)c(=O)[nH]2)c1` [ESI-08], at EPAC2 [6] (RA = IC50, cAMP/IC50, compound), the “Relative Potency (RA)” value worked out at 4.5. The 50% inhibitory concentration (IC50) on EPAC2 [6] (competing with 8-NBD-cAMP in binding EPAC2, read-out: Apparent IC50) amounted to 8.7 ± 1.1 µM. Further, the “007-AM induced Rap1 activation” value at EPAC2 [1] is reported as “much less effective”.

By IC50 is commonly meant the midpoint of a concentration-inhibition curve.
